Reference: patent US20230339970A1, “CASEIN KINASE 1 DELTA MODULATORS” (priority 2020, published 2023)

Key:
[1] = target: T1, human CSNK1D (Homo sapiens, UniProt P48730); assay: Whole Cell nBRET CSNK1D Binding Assay; conditions: living CHO cells stably expressing human CSNK1D tagged with nanoluciferase; NanoBret tracer 130 nM; 2 hours at 37 C
T1 construct: expressed in transfected cells

[2] = target: T2, human recombinant GST cleaved CSNK1D (Homo sapiens, UniProt P48730); assay: Purified Enzyme Assay (ADP-Glo CSNK1D Kinase Assay); format: biochemical; conditions: 2 nM CSNK1D; peptide substrate 150 μM; ATP 20 μM; 45 minutes at room temperature
T2 construct: GST (cleaved yes); purchased University of Dundee clone DU 19064
In short: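 Percent activity derived from ADP-Glo quantification of ADP produced. Reactions: compound dose-response with human recombinant GST-cleaved CSNK1D, ATP and substrate peptide PLSRTL-pS-VASLPGL, incubated 45 min at room temperature.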

T2 sequence (P48730 whole entry): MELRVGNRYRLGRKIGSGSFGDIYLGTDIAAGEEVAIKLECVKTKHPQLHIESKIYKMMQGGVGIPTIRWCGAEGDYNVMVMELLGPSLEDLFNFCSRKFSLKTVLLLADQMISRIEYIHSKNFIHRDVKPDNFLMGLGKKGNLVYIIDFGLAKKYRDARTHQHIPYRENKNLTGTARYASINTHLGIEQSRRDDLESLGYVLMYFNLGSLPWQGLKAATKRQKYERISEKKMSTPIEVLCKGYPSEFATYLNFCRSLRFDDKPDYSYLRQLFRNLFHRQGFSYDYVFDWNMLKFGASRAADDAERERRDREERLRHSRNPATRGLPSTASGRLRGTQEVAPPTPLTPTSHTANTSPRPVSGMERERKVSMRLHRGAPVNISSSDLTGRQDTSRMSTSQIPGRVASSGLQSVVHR
T1 sequence (P48730 whole entry): as above

IC50 [1] [nM]	IC50 [2] [nM]	Compound
102	7	CC1(C)Cn2nc(-c3ncc(F)cc3F)c(-c3ccnc4[nH]ncc34)c2CO1 [Example 166, 2-(3,5-Difluoropyridin-2-yl)-6,6-dimethyl-3-(1H-pyrazolo[3,4-b]pyridin-4-yl)-6,7-dihydro-4H-pyrazolo[5,1-c][1,4]oxazine]
19	2	Cc1nc2[nH]ncc2c(-c2c(-c3ccc(F)cn3)nn3c2CC(C)(C)C3)c1F [Example 240, 5-Fluoro-4-[2-(5-fluoro-2-pyridyl)-5,5-dimethyl-4,6-dihydropyrrolo[1,2-b]pyrazol-3-yl]-6-methyl-1H-pyrazolo[3,4-b]pyridine]
1	1	Fc1ccc(-c2nn3c(c2-c2ccnc4[nH]ncc24)CCC2(C3)CC2(F)F)cc1 (single isomer, unassigned) [Example 325, (*R)-2,2-Difluoro-2′-(4-fluorophenyl)-3′-(1H-pyrazolo[3,4-b]pyridin-4-yl)-4′,5′-dihydro-7′H-spiro[cyclopropane-1,6′-pyrazolo[1,5-a]pyridine]]
59	3	CC1CCn2nc(-c3ccc(F)cn3)c(-c3ccnc4[nH]ncc34)c2O1 (single isomer, unassigned) [Example 198, (*S)-2-(5-Fluoro-2-pyridyl)-5-methyl-3-(1H-pyrazolo[3,4-b]pyridin-4-yl)-6,7-dihydro-5H-pyrazolo[5,1-b][1,3]oxazine]
198	10	C[C@@H]1C[C@H](C)Oc2c(-c3ccnc4[nH]ncc34)c(-c3ccc(F)cn3)nn21 (single isomer, unassigned) [Example 202, (5*S,7*R)-2-(5-Fluoro-2-pyridyl)-5,7-dimethyl-3-(1H-pyrazolo[3,4-b]pyridin-4-yl)-6,7-dihydro-5H-pyrazolo[5,1-b][1,3]oxazine]
> 10000	293	Cc1n[nH]c2nc(C(F)F)cc(-c3c(-c4ccc(F)cc4)nn4c3COC(C(F)(F)F)C4)c12 (single isomer, unassigned) [Example 374, (*S)-3-[6-(Difluoromethyl)-3-methyl-1H-pyrazolo[3,4-b]pyridin-4-yl]-2-(4-fluorophenyl)-6-(trifluoromethyl)-6,7-dihydro-4H-pyrazolo[5,1-c][1,4]oxazine]
198	7	CC1(C(F)(F)F)Cn2nc(-c3ccc(F)cn3)c(-c3ccnc4[nH]ncc34)c2CO1 (stereo not shown) [Example 176, 2-(5-Fluoropyridin-2-yl)-6-methyl-3-(1H-pyrazolo[3,4-b]pyridin-4-yl)-6-(trifluoromethyl)-6,7-dihydro-4H-pyrazolo[5,1-c][1,4]oxazine]
32	2	CC1(C)Cc2c(-c3ccnc4[nH]ncc34)c(-c3ccc(F)cn3)nn2C1 [Example 234, 4-[2-(5-Fluoro-2-pyridyl)-5,5-dimethyl-4,6-dihydropyrrolo[1,2-b]pyrazol-3-yl]-1H-pyrazolo[3,4-b]pyridine]
219	25	[2H]C([2H])([2H])C1(C([2H])([2H])[2H])Cn2nc(-c3ccc(F)cn3)c(-c3c(Cl)c(C)nc4[nH]ncc34)c2CO1 [Example 407, 3-(5-Chloro-6-methyl-1H-pyrazolo[3,4-b]pyridin-4-yl)-2-(5-fluoropyridin-2-yl)-6,6-bis(methyl-d3)-6,7-dihydro-4H-pyrazolo[5,1-c][1,4]oxazine]
68	8	COCC1(F)CCc2c(-c3cc(C(F)F)nc4[nH]ncc34)c(-c3ccc(F)cn3)nn2C1 (single isomer, unassigned) [Example 306, (*S)-6-(Difluoromethyl)-4-[6-fluoro-2-(5-fluoro-2-pyridyl)-6-(methoxymethyl)-5,7-dihydro-4H-pyrazolo[1,5-a]pyridin-3-yl]-1H-pyrazolo[3,4-b]pyridine]

Second part, the compound before the results:

Compound	IC50 [1] [nM]	IC50 [2] [nM]
Cc1cc(-c2c(-c3ccc(F)cc3)nn3c2COC[C@H]3C)c2cn[nH]c2n1 (single isomer, unassigned) [Example 94, (*R)-2-(4-Fluorophenyl)-7-methyl-3-(6-methyl-1H-pyrazolo[3,4-b]pyridin-4-yl)-6,7-dihydro-4H-pyrazolo[5,1-c][1,4]oxazine]	92	7
Fc1ccc(-c2nn3c(c2-c2ccnc4[nH]ncc24)OCC2(C3)CC2(F)F)cc1 (single isomer, unassigned) [Example 477, (*R)-2,2-Difluoro-2′-(4-fluorophenyl)-3′-1H-pyrazolo[3,4-b]pyridin-4-yl)-5′H,7′H-spiro[cyclopropane-1,6′-pyrazolo[5,1-b][1,3]oxazine]]	33	6
[2H]C([2H])([2H])C1(C([2H])([2H])[2H])Cn2nc(-c3ccc(F)cn3)c(-c3c(F)cnc4[nH]ccc34)c2CO1 [Example 397, 3-(5-Fluoro-1H-pyrrolo[2,3-b]pyridin-4-yl)-2-(5-fluoropyridin-2-yl)-6,6-bis(methyl-d3)-6,7-dihydro-4H-pyrazolo[5,1-c][1,4]oxazine]	11	2
Fc1ccc(-c2nn3c(c2-c2ccnc4[nH]ncc24)COCC32CC2)cc1 [Example 106, 2′-(4-Fluorophenyl)-3′-(1H-pyrazolo[3,4-b]pyridin-4-yl)-4′H,6′H-spiro[cyclopropane-1,7′-pyrazolo[5,1-c][1,4]oxazine]]	137	9
CCC(=O)Nc1cc(-c2c(-c3ccc(F)cn3)nn3c2OCC(C)(C)C3)ccn1 [Example 447, N-(4-(2-(5-Fluoropyridin-2-yl)-6,6-dimethyl-6,7-dihydro-5H-pyrazolo[5,1-b][1,3]oxazin-3-yl)pyridin-2-yl)propionamide]	5	2
Fc1ccc(-c2nn3c(c2-c2ccnc4[nH]ncc24)C[C@@H]2C[C@@H]23)cc1 [Example 268, (4aS,5aS)-2-(4-Fluorophenyl)-3-(1H-pyrazolo[3,4-b]pyridin-4-yl)-4,4a,5,5a-tetrahydrocyclopropa[4,5]pyrrolo[1,2-b]pyrazole]	5	1
[2H]C([2H])([2H])C1(C([2H])([2H])[2H])Cn2nc(-c3ccc(F)cn3)c(-c3ccnc4[nH]nc(Cl)c34)c2CO1 [Example 400, 3-(3-Chloro-1H-pyrazolo[3,4-b]pyridin-4-yl)-2-(5-fluoropyridin-2-yl)-6,6-bis(methyl-d3)-6,7-dihydro-4H-pyrazolo[5,1-c][1,4]oxazine]	30	4
Fc1ccc(-c2nn3c(c2-c2ccnc4[nH]ncc24)C[C@@H]2[C@H](C3)C2(F)F)cc1 (stereo in doubt) [Example 362, (4a*R,5a*R)-5,5-Difluoro-2-(4-fluorophenyl)-3-(1H-pyrazolo[3,4-b]pyridin-4-yl)-4a,5,5a,6-tetrahydro-4H-cyclopropa[d]pyrazolo[1,5-a]pyridine]	3	1
CC1(C)Cn2nc(-c3ccc(F)cn3)c(-c3ccn4nccc4n3)c2CO1 [Example 387, 2-(5-Fluoropyridin-2-yl)-6,6-dimethyl-3-(pyrazolo[1,5-a]pyrimidin-5-yl)-6,7-dihydro-4H-pyrazolo[5,1-c][1,4]oxazine]	760	30
C[C@@H]1COCc2c(-c3ccnc4[nH]ncc34)c(-c3ccc(F)cc3)nn21 (single isomer, unassigned) [Example 92, (*R)-2-(4-Fluorophenyl)-7-methyl-3-(1H-pyrazolo[3,4-b]pyridin-4-yl)-6,7-dihydro-4H-pyrazolo[5,1-c][1,4]oxazine]	100	4
